Results taken from article PMC9785925, “Solubility and Thermal Stability of Thermotoga maritima MreB” (International Journal of Molecular Sciences, 2022).

Experiments:
Format in all cases: binding
Tm-MreB [1] = biological target: T1, Tm-MreB (Thermotoga maritima, UniProt Q9WZ57); assay: thermal denaturation, tryptophan fluorescence; conditions: 2 mM ATP, salt-free (4 mM TRIS-HCl, 0.1 mM CaCl2, pH 7.5); printed as 90 °C≤
T1 construct: recombinant in E. coli ArcticExpress (DE3), Ni-NTA purified, His-tag removed with PreScission protease; native purification
T1 sequence (Q9WZ57 1-336): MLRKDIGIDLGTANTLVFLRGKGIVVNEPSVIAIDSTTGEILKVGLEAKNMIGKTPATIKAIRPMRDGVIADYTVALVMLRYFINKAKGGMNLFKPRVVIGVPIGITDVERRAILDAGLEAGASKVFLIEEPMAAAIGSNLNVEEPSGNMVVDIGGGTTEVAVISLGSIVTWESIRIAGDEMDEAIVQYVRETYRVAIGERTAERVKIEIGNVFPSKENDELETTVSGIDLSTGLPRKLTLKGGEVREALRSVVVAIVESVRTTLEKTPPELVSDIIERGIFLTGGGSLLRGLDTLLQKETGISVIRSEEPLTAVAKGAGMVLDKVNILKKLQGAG
Description: thermal denaturation, tryptophan fluorescence on Tm-MreB

Tm-MreB [2] = biological target: T1, Tm-MreB; assay: competition with TNP-ATP fluorescence, Langmuir single-site fit; conditions: salt-free (4 mM TRIS-HCl, 0.1 mM CaCl2, pH 7.5), 20 µM protein, 1 µM TNP-ATP; competitive; unreliable (text and figure legend disagree)
Description: competition with TNP-ATP fluorescence, Langmuir single-site fit on Tm-MreB | we were able to determine the affinity of ATP for Tm-MreB

Tm-MreB [3] = biological target: T1, Tm-MreB; assay: TNP-ATP fluorescence titration, Hill fit

| This Work (Tryptophan Signal) (Tm-MreB [1]) | affinity (Tm-MreB [2]) | SMILES | Kd (Tm-MreB [3]) |
| --- | --- | --- | --- |
| > 90 °C | ~ 2 µM | Nc1ncnc2c1ncn2[C@@H]1O[C@H](COP(=O)(O)OP(=O)(O)OP(=O)(O)O)[C@@H](O)[C@H]1O [ATP] |  |
|  |  | Nc1ncnc2c1ncn2[C@@H]1O[C@H](COP(=O)(O)OP(=O)(O)OP(=O)(O)O)[C@H]2OC3(O[C@H]21)C([N+](=O)[O-])=CC(=[N+]([O-])[O-])C=C3[N+](=O)[O-] (stereo partly drawn) [TNP-ATP] | 3.69 ± 0.04 µM |
